Source: patent publication US6867210B2, “Aryl substituted pyrimidines” (Euro-Celtique S.A., priority 2000, dated 2005)
Counter-ions that a name gives are not always drawn. Like-named read-outs stand apart in the source and are kept apart here. Each block holds one molecule with its values, some of them ahead of it.

Tests used:
[1] = target: rBIIa/beta 1 sodium channels expressed in Xenopus oocytes (Rattus norvegicus, UniProt P04775); assay: Electrophysiological Assay 2: two-electrode voltage clamp in Xenopus oocytes; type: cell-based; conditions: apparent Ki for the inactivated state from single point inhibition data, read-out: RBIIA/β1 Ki
Procedure: Electrophysiological Assay 2 was used to measure potencies of compounds of the present invention rBIIa/beta 1 sodium channels expressed in Xenopus oocytes.
Preparation of cRNA encoding cloned rat brain type IIa (rBIIa) and beta 1 (β1): cDNA clones encoding the rat brain beta 1 subunit were cloned in house using standard methods, and mRNA were prepared by standard methods. mRNA encoding rBIIa was provided by Dr. A. Golden (UC Irvine). The mRNAs were diluted and stored at −80° C. in 1 μL aliquots until injection.
Preparation of oocytes: Mature female Xenopus laevis were anaesthetized (20-40 min) using 0.15% 3-aminobenzoic acid ethyl ester (MS-222) following established procedures (Woodward, R. M., et al., Mol. Pharmacol. 41:89-103 (1992)).
Two to six ovarian lobes were surgically removed. Oocytes at developmental stages V-VI were dissected from the ovary, oocytes were still surrounded by enveloping ovarian tissues. Oocytes were defolliculated on the day of surgery by treatment with collagenase (0.5 mg/mL Sigma Type I, or Boehringer Mannheim Type A, for 0.5-1 hr). Treated oocytes were vortexed to dislodge epithelia, washed repeatedly and stored in Barth's medium containing 88 mM NaCl, 1 mM KCl, 0.41 mM CaCl2, 0.33 mM Ca(NO3)2, 0.82 mM MgSO4, 2.4 mM NaHCO3, 5 mM HEPES, pH 7.4 adjusted with 0.1 mg/mL gentamycin sulphate.
Micro-injection of oocytes: Defolliculated oocytes were micro-injected using a Nanoject injection system (Drummond Scientific Co., Broomall, Pa.). Injection pipettes were beveled to minimize clogging. Tip diameter of injection pipettes was 15-35 μm. Oocytes were microinjected with approximately 50 nL 1:10 ratio mixtures of cRNAs for rBIIa and beta 1 respectively.
Electrophysiology: Membrane current responses were recorded in frog Ringer solution containing 115 mM NaCl, 2 mM KCl, 1.8 mM CaCl2, 5 mM HEPES, pH 7.4. Electrical recordings were made using a conventional two-electrode voltage clamp (Dagan TEV-200) over periods ranging between 1-7 days following injection. The recording chamber was a simple gravity fed flow-through chamber (volume […] depending on adjustment of aspirator). Oocytes were placed in the recording chamber, impaled with electrodes and continuously perfused (5-15 mL min^−1) with frog Ringer's solution. The tested compounds were applied by bath perfusion.
Voltage protocols for evoking sodium channel currents: The standard holding potential for whole oocyte clamp was −120 mV. Standard current-voltage relationships were elicited by 40 ms depolarizing steps starting from −60 mV to +50 mV in 10 mV increments. Peak currents were measured as the maximum negative current after depolarizing voltage steps. The voltage from maximum current response was noted and used for the next voltage protocol.
The purpose was to find compounds that are state dependent modifiers of neuronal sodium channels. Preferably, the compounds have a low affinity for the rested/closed state of the channel, but a high affinity for the inactivated state. The following voltage protocol was used to measure a compounds affinity for the inactivated state. Oocytes were held at a holding potential of −120 mV. At this membrane voltage, nearly all of the channels would be in the closed state. Then a 4 second depolarization was made to the voltage where the maximum current was elicited. At the end of this depolarization, nearly all the channels would be in the inactivated state. A 10 ms hyperpolarizing step was then made in order to remove some channels from the incativated state. A final depolarizing test pulse was used to assay the sodium current after this prolonged depolarization (see analysis below). Sodium currents were measured at this test pulse before and after the application of the tested compound. Data was acquired using pClamp 8.0 software and analyzed with clampfit software (Axon instruments). […]

[2] = system: maximal electroshock-induced seizures (MES); assay: Maximum electroshock seizure test (MES), anticonvulsant evaluation; type: in vivo; conditions: Mus musculus, mice
From the text: The compounds of the present invention may be tested for in vivo anticonvulsant activity after i.v., p.o. or i.p. injection using a number of anticonvulsant tests in mice, including the maximum electroshock seizure test (MES). Maximum electroshock seizures were induced in male NSA mice weighing between 15-20 g and male Sprague-Dawley rats weighing between 200-225 g by application of current (50 mA, 60 pulses/sec, 0.8 msec pulse width, 1 sec duration, D.C., mice; 99 mA, 125 pulses/sec, 0.8 msec pulse width, 2 sec duration, D.C., rats) using a Ugo Basile ECT device (Model 7801). Mice were restrained by gripping the loose skin on their dorsal surface and saline-coated corneal electrodes were held lightly against the two corneae. Rats were allowed free movement on the bench top and ear-clip electrodes were used. […] A tonic seizure was defined as a hindlimb extension in excess of 90 degrees from the plane of the body. Results were treated in a quantal manner.
The ability of 4-[4-(4-fluorophenoxy)phenyl]-pyrimidine-2-carboxamide to block maximal electroshock-induced seizures (MES) was determined according to the method above.
4-[4-(4-Fluorophenoxy)phenyl]-pyrimidine-2-carboxamide was administered p.o. to mice 30 minutes before the test procedure.
The following compounds on Table 1 were tested accordingly after a p.o. administration and also after an i.v. injection. The compounds were injected i.v. 15 minutes before the test procedure.

[3] = iv, i.v. injection 15 minutes before the test, read-out: MES i.v. ED50
[4] = po, p.o., 30 minutes before the test, ED50 = dose protecting 50% of animals, read-out: MES p.o. ED50

Molecule: NC(=O)c1ccc(O)c(-c2ccc(Oc3ccccc3)cc2)n1 [5-hydroxy-6-(4-phenoxyphenyl)pyridine-2-carboxamide]
Ki [1]: 99.3 µM

Molecule: CN(C)C=NC(=O)c1ccnc(-c2ccc(Oc3ccc(Cl)cc3F)cc2)n1 [2-[4-(4-chloro-2-fluorophenoxy)phenyl]pyrimidine-4-carboxylic acid dimethylaminomethyleneamide]
ED50 [2, 3]: 1.5 mg/kg
ED50 [2, 4]: 4.1 mg/kg

Molecule: CCOc1ccc(-c2cccc(C(N)=O)n2)cc1 [Compound 8e, 6-(4-ethoxyphenyl)pyridine-2-carboxamide]
Ki [1]: 58.7 µM

Molecule: CSc1ccc(-c2cccc(C(N)=O)n2)cc1 [Compound 8d, 6-(4-thiomethylphenyl)pyridine-2-carboxamide]
Ki [1]: 52.7 µM

Molecule: CN(C)c1nccc(-c2ccc(Oc3ccc(F)cc3)cc2)n1 [2-dimethylamino-4-[4-(4-fluorophenoxy)phenyl]pyrimidine]
Ki [1]: 27.6 µM

Molecule: CNC=NC(=O)c1nccc(-c2ccc(Oc3ccc(F)cc3)cc2)n1 [4-[4-(4-fluorophenoxy)phenyl]pyrimidine-2-carboxylic acid methylaminomethyleneamide hydrochloride]
Ki [1]: 11.4 µM

Molecule: COC(=O)c1nccc(-c2ccc(Oc3ccc(F)cc3F)cc2)n1 [4-[4-(2,4-difluorophenoxy)phenyl]pyrimidine-2-carboxylic acid methyl ester]
Ki [1]: 139 µM

Molecule: COc1ccc(-c2cccc(C(N)=O)n2)cc1 [Compound 8f, 6-(4-methoxyphenyl)pyridine-2-carboxamide]
Ki [1]: 23.9 µM

Molecule: CNC(=O)c1nccc(-c2ccc(Oc3ccc(F)cc3)cc2)n1 [4-[4-(4-Fluorophenoxy)phenyl]-pyrimidine-2-carboxylic acid methylamide]
ED50 [2, 3]: 2.8 mg/kg
ED50 [2, 4]: 6.1 mg/kg

Molecule: CN(C)C(=O)c1cc(N(C)C)nc(-c2ccc(Oc3ccccc3)cc2)n1 [2-(4-phenoxyphenyl)-6-(dimethylamino)pyrimidine-4-carboxylic acid dimethylamide]
ED50 [2, 3]: 2.1 mg/kg

Molecule: 4-[4-(4-fluorophenoxy)phenyl]pyrimidine-2-carbamate
Ki [1]: 8.7 µM

Molecule: N#Cc1ccc(C(N)=O)nc1-c1ccc(Oc2ccccc2)cc1 [5-cyano-6-(4-phenoxyphenyl)pyridine-2-carboxamide]
Ki [1]: 11.9 µM

Molecule: O=C(c1nccc(-c2ccc(Oc3ccc(F)cc3)cc2)n1)C(Br)Br [1-[4-[4-(4-fluorophenoxy)phenyl]pyrimidine-2-yl]-2,2-dibromoethanone]
Ki [1]: 10.6 µM

Molecule: CCCCc1ccc(-c2cccc(C(N)=O)n2)cc1 [Compound 8b, 6-(4-n-butylphenyl)pyridine-2-carboxamide]
Ki [1]: 10.5 µM

Molecule: COC(=O)c1ccnc(-c2ccc(Oc3ccc(F)cc3)cc2)n1 [2-[4-(4-fluorophenoxy)phenyl]pyrimidine-4-carboxylic acid methyl ester]
Ki [1]: 71.5 µM

Molecule: O=C(NCCCl)c1nccc(-c2ccc(Oc3ccc(F)cc3)cc2)n1 [4-[4-(4-fluorophenoxy)phenyl]pyrimidine-2-carboxylic acid 2-chloroethylamide]
Ki [1]: 2.62 µM

Molecule: CCOC(=O)c1nccc(-c2ccc(Oc3ccc(F)cc3)cc2)n1 [4-[4-(4-Fluorophenoxy)phenyl]-pyrimidine-2-carboxylic acid ethyl ester]
Ki [1]: 9.86 µM

Molecule: CC(C)c1ccc(-c2cccc(C(N)=O)n2)cc1 [Compound 8c, 6-(4-i-propylphenyl)pyridine-2-carboxamide]
Ki [1]: 41.6 µM

More lines, in order of falling Ki [1], values ahead:

Ki [1]: 8.45 µM
Molecule: Cc1nc(-c2ccc(Oc3ccc(F)cc3)cc2)ccc1C(N)=O [2-methyl-6-[4-(4-fluorophenoxy)phenyl]pyridine-3-carboxamide]

Ki [1]: 6.13 µM
Molecule: CC(C)(C)c1ccc(-c2cccc(C(N)=O)n2)cc1 [Compound 8a, 6-(4-tert-butylphenyl)pyridine-2-carboxamide]

Ki [1]: 5.91 µM
Molecule: Fc1ccc(Oc2ccc(-c3ccnc(-c4nc[nH]n4)n3)cc2)cc1 [2-[3-(1,2,4-triazolyl)]-4-[4-(4-fluorophenoxy)phenyl]pyrimidine]

Ki [1]: 4.54 µM
Molecule: NC(=O)c1ccc(-c2ccc(Oc3ccc(F)cc3)cc2)nc1C(N)=O [6-[4-(4-fluorophenoxy)phenyl]pyridine-2,3-dicarboxamide]

Ki [1]: 3.53 µM
Molecule: O=CNC(=O)c1nccc(-c2ccc(Oc3ccc(F)cc3)cc2)n1 [4-[4-(4-fluorophenoxy)phenyl]pyrimidine-2-carboxylic acid hydroxymethyleneamide]
ED50 [2, 3]: 1.5 mg/kg
ED50 [2, 4]: 5 mg/kg

Ki [1]: 3.43 µM
Molecule: COc1cc(C(N)=O)nc(-c2ccc(Oc3ccc(F)cc3)cc2)c1 [Compound 18, 4-Methoxy-6-[4-(4-fluorophenoxy)phenyl]pyridine-2-carboxamide]

Ki [1]: 2.63 µM
Molecule: Fc1ccc(Oc2ccc(-c3ccnc(-c4ccno4)n3)cc2)cc1 [2-(5-isoxazolyl)-4-[4-(4-fluorophenoxy)phenyl]pyrimidine]

Ki [1]: 1.13 µM
Molecule: NC(=O)c1nccc(-c2ccc(Oc3ccc([N+](=O)[O-])cc3)cc2)n1 [4-[4-(4-Nitrophenoxy)phenyl]-pyrimidine-2-carboxamide]
ED50 [2, 3]: 3.1 mg/kg
ED50 [2, 4]: 10 mg/kg

Ki [1]: 0.33 µM
Molecule: Cc1cc(N(C)C)cc(-c2ccc(Oc3ccc(F)cc3)cc2)n1 [Compound 14, 2-Methyl-4-dimethylamino-6-[4-(4-fluorophenoxy)phenyl]pyridine]

Ki [1]: 0.32 µM
Molecule: COc1cc(C(=O)NCCN(C)C)nc(-c2ccc(Oc3ccc(F)cc3)cc2)c1 [Compound 19, 4-Methoxy-6-[4-(4-fluorophenoxy)phenyl]pyridine-2-carboxylic acid dimethylaminoethylamide]

Ki [1]: 0.06 µM
Molecule: O=C(NCCN1CCCCC1)c1cccc(-c2ccc(Oc3ccc(F)cc3)cc2)n1 [Compound 3, 6-[4-(4-fluorophenoxy)Phenyl]Pyridine Carboxylic Acid N-piperidinylethylamide]
